Assay results taken from the supplement of paper PMC4862054.
“And” between values parts separate entries of the source, which are not always exact repeats. Equal entries are not always repeated.

Key:
Conditions in all cases: incubation time: 72 h
CAL-148 [1] = experiment: drug sensitivity score (DSS), CellTox Green (DSS (AUC-based score)); higher = stronger drug effect (viability inhibition or cytotoxicity); extreme values may be limits of the assay
Summary of the method: (§1)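 Breast cancer cell lines (20 µl suspension) were seeded into 384-well plates holding compound at 5 concentrations in 10-fold steps over a compound-specific 10,000-fold range, then incubated 72 h. CellTox Green fluorescence (485/520 nm) was read first, then CellTiter-Glo luminescence after 10 min at room temperature. Each plate was normalised to 0.1 % DMSO and a positive kill control. The drug sensitivity score was calculated from the area under the fitted dose-response curve.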

CAL-85-1 [2] = experiment: as above
Summary of the method: as §1

HCC1143 [3] = experiment: as above
Summary of the method: as §1

MDA-MB-453 [4] = experiment: as above
Summary of the method: as §1

MDA-MB-231 [5] = experiment: as above
Summary of the method: as §1

CAL-120 [6] = experiment: as above
Summary of the method: as §1

Hs578T = experiment: normalised viability (% of control), CellTiter-Blue; higher = more viable cells (about 100 = DMSO control)
Procedure: (§2)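 DSRT, CellTiter-Blue viability, 72 h incubation. Signal is normalised to DMSO and benzethonium chloride controls. Value is the normalised response at dose 3.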

CAL-148 [7] = experiment: as above
Procedure: as §2

CAL-85-1 [8] = experiment: as above
Procedure: as §2

HCC1143 [9] = experiment: as above
Procedure: as §2

MDA-MB-468 = experiment: as above
Procedure: as §2

MFM-223 = experiment: as above
Procedure: as §2

SK-BR-3 = experiment: as above
Procedure: as §2

HCC1937 = experiment: as above
Procedure: as §2

HCC1599 = experiment: as above
Procedure: as §2

MDA-MB-453 [10] = experiment: as above
Procedure: as §2

HDQ-P1 = experiment: as above
Procedure: as §2

BT-549 = experiment: as above
Procedure: as §2

CAL-51 = experiment: as above
Procedure: as §2

MDA-MB-231 [11] = experiment: as above
Procedure: as §2

DU-4475 = experiment: as above
Procedure: as §2

CAL-120 [12] = experiment: as above
Procedure: as §2

BT-474 = experiment: as above
Procedure: as §2

MDA-MB-436 = experiment: as above
Procedure: as §2

Cc1c(N)nc([C@H](CC(N)=O)NC[C@H](N)C(N)=O)nc1C(=O)N[C@H](C(=O)N[C@H](C)[C@@H](O)[C@H](C)C(=O)N[C@H](C(=O)NCCc1nc(-c2nc(C(=O)NCCC[S+](C)C)cs2)cs1)[C@@H](C)O)[C@@H](OC1OC(CO)C(O)C(O)C1OC1OC(CO)C(O)C(OC(N)=O)C1O)c1cnc[nH]1 (stereo partly drawn) [Bleomycin]
drug sensitivity score (CAL-148 [1]): 8.42
drug sensitivity score (CAL-85-1 [2]): 0.93
drug sensitivity score (HCC1143 [3]): 0
drug sensitivity score (MDA-MB-453 [4]): 0
drug sensitivity score (MDA-MB-231 [5]): 4.48
drug sensitivity score (CAL-120 [6]): 0
normalised viability (Hs578T; 100 nM): 68.7%
normalised viability (CAL-148 [7]; 10 nM): 77.6%
normalised viability (CAL-85-1 [8]; 10 nM): 107%
normalised viability (HCC1143 [9]; 100 nM): 74.7%
normalised viability (MDA-MB-468; 100 nM): 86.5%
normalised viability (MFM-223; 100 nM): 99.5%
normalised viability (SK-BR-3; 100 nM): 90.8%
normalised viability (HCC1937; 100 nM): 91.4%
normalised viability (HCC1599; 100 nM): 134%
normalised viability (MDA-MB-453 [10]; 10 nM): 102%
normalised viability (HDQ-P1; 10 nM): 82.3%
normalised viability (BT-549; 100 nM): 61.4%
normalised viability (CAL-51; 10 nM): 98.2%
normalised viability (MDA-MB-231 [11]; 100 nM): 81.8%
normalised viability (DU-4475; 10 nM): 120%
normalised viability (CAL-120 [12]; 100 nM): 86.3%
normalised viability (BT-474; 100 nM): 96%
normalised viability (MDA-MB-436; 100 nM): 88.2%

Cc1cc2c(F)c(Oc3ncnn4cc(OC[C@@H](C)O)c(C)c34)ccc2[nH]1 [Brivanib]
drug sensitivity score (CAL-148 [1]): 0
drug sensitivity score (CAL-85-1 [2]): 0.499
drug sensitivity score (HCC1143 [3]): 0
drug sensitivity score (MDA-MB-453 [4]): 0
drug sensitivity score (MDA-MB-231 [5]): 0
drug sensitivity score (CAL-120 [6]): 0
normalised viability (Hs578T; 10 nM): 88.9%
normalised viability (CAL-148 [7]; 1 nM): 82.3%
normalised viability (CAL-85-1 [8]; 1 nM): 105%
normalised viability (HCC1143 [9]; 10 nM): 78.8%
normalised viability (MDA-MB-468; 10 nM): 103%
normalised viability (MFM-223; 10 nM): 90.1%
normalised viability (SK-BR-3; 10 nM): 75.5%
normalised viability (HCC1937; 10 nM): 97.2%
normalised viability (HCC1599; 10 nM): 96.2%
normalised viability (MDA-MB-453 [10]; 1 nM): 102%
normalised viability (HDQ-P1; 1 nM): 94.8%
normalised viability (BT-549; 10 nM): 93.9%
normalised viability (CAL-51; 1 nM): 91.8%
normalised viability (MDA-MB-231 [11]; 10 nM): 98.1%
normalised viability (DU-4475; 1 nM): 96.3%
normalised viability (CAL-120 [12]; 10 nM): 88.2%
normalised viability (BT-474; 10 nM): 102%
normalised viability (MDA-MB-436; 10 nM): 104%

CCCCCOC(=O)Nc1nc(=O)n([C@@H]2O[C@H](C)[C@@H](O)[C@H]2O)cc1F [Capecitabine]
drug sensitivity score (CAL-148 [1]): 0
drug sensitivity score (CAL-85-1 [2]): 0
drug sensitivity score (HCC1143 [3]): 0
drug sensitivity score (MDA-MB-453 [4]): 0
drug sensitivity score (MDA-MB-231 [5]): 0
drug sensitivity score (CAL-120 [6]): 0
normalised viability (Hs578T; 100 nM): 83.7% and 96.8%
normalised viability (CAL-148 [7]; 10 nM): 86.9% and 94.2%
normalised viability (CAL-85-1 [8]; 10 nM): 96.7% and 98.3%
normalised viability (MDA-MB-468; 100 nM): 101% and 111%
normalised viability (MFM-223; 100 nM): 87.7% and 104%
normalised viability (SK-BR-3; 100 nM): 77.5% and 96.3%
normalised viability (HCC1937; 100 nM): 86.1% and 80.9%
normalised viability (HCC1599; 100 nM): 123% and 106%
normalised viability (MDA-MB-453 [10]; 10 nM): 94.8% and 93.2%
normalised viability (HDQ-P1; 10 nM): 106% and 91.4%
normalised viability (BT-549; 100 nM): 103% and 97.5%
normalised viability (CAL-51; 10 nM): 110% and 102%
normalised viability (MDA-MB-231 [11]; 100 nM): 98.2% and 87%
normalised viability (DU-4475; 10 nM): 97.4% and 107%
normalised viability (CAL-120 [12]; 100 nM): 85.3% and 95.2%
normalised viability (BT-474; 100 nM): 114% and 99.9%
normalised viability (MDA-MB-436; 100 nM): 95.8% and 95.6%

CC(C)C[C@H](NC(=O)[C@H](CCc1ccccc1)NC(=O)CN1CCOCC1)C(=O)N[C@@H](Cc1ccccc1)C(=O)N[C@@H](CC(C)C)C(=O)[C@@]1(C)CO1 [Carfilzomib]
drug sensitivity score (CAL-148 [1]): 19
drug sensitivity score (CAL-85-1 [2]): 24.8
drug sensitivity score (HCC1143 [3]): 0
drug sensitivity score (MDA-MB-453 [4]): 0
drug sensitivity score (MDA-MB-231 [5]): 24.1
drug sensitivity score (CAL-120 [6]): 17.2
normalised viability (Hs578T; 10 nM): 13.8%
normalised viability (CAL-148 [7]; 1 nM): 98.5%
normalised viability (CAL-85-1 [8]; 1 nM): 104%
normalised viability (HCC1143 [9]; 10 nM): 53.4%
normalised viability (MDA-MB-468; 10 nM): 19.5%
normalised viability (MFM-223; 10 nM): 14.8%
normalised viability (SK-BR-3; 10 nM): 33.2%
normalised viability (HCC1937; 10 nM): 22.8%
normalised viability (HCC1599; 10 nM): 109%
normalised viability (MDA-MB-453 [10]; 1 nM): 96.8%
normalised viability (HDQ-P1; 1 nM): 109%
normalised viability (BT-549; 10 nM): 12.5%
normalised viability (CAL-51; 1 nM): 106%
normalised viability (MDA-MB-231 [11]; 10 nM): 28.1%
normalised viability (DU-4475; 1 nM): 93.5%
normalised viability (CAL-120 [12]; 10 nM): 46.2%
normalised viability (BT-474; 10 nM): 87.2%
normalised viability (MDA-MB-436; 10 nM): 73.5%

Nc1nc(Cl)nc2c1ncn2[C@@H]1O[C@H](CO)[C@@H](O)[C@@H]1F [Clofarabine]
drug sensitivity score (CAL-148 [1]): 7.09
drug sensitivity score (CAL-85-1 [2]): 3.72
drug sensitivity score (HCC1143 [3]): 0
drug sensitivity score (MDA-MB-453 [4]): 0
drug sensitivity score (MDA-MB-231 [5]): 0
drug sensitivity score (CAL-120 [6]): 0
normalised viability (Hs578T; 100 nM): 84.6%
normalised viability (CAL-148 [7]; 10 nM): 86.8%
normalised viability (CAL-85-1 [8]; 10 nM): 96.8%
normalised viability (HCC1143 [9]; 100 nM): 79.7%
normalised viability (MDA-MB-468; 100 nM): 91.3%
normalised viability (MFM-223; 100 nM): 89.1%
normalised viability (SK-BR-3; 100 nM): 65%
normalised viability (HCC1937; 100 nM): 80%
normalised viability (HCC1599; 100 nM): 93.7%
normalised viability (MDA-MB-453 [10]; 10 nM): 103%
normalised viability (HDQ-P1; 10 nM): 110%
normalised viability (BT-549; 100 nM): 85.6%
normalised viability (CAL-51; 10 nM): 111%
normalised viability (MDA-MB-231 [11]; 100 nM): 64.2%
normalised viability (DU-4475; 10 nM): 105%
normalised viability (CAL-120 [12]; 100 nM): 78.8%
normalised viability (BT-474; 100 nM): 99.2%
normalised viability (MDA-MB-436; 100 nM): 77%

CCN(CC)CCOc1ccc(C(=C(Cl)c2ccccc2)c2ccccc2)cc1 [Clomifene]
drug sensitivity score (CAL-148 [1]): 0
drug sensitivity score (CAL-85-1 [2]): 2.27
drug sensitivity score (HCC1143 [3]): 0
drug sensitivity score (MDA-MB-453 [4]): 2.83
drug sensitivity score (MDA-MB-231 [5]): 8.18
drug sensitivity score (CAL-120 [6]): 1.48
normalised viability (Hs578T; 100 nM): 95.7%
normalised viability (CAL-148 [7]; 10 nM): 94%
normalised viability (CAL-85-1 [8]; 10 nM): 96.2%
normalised viability (HCC1143 [9]; 100 nM): 88.5%
normalised viability (MDA-MB-468; 100 nM): 97.5%
normalised viability (MFM-223; 100 nM): 103%
normalised viability (SK-BR-3; 100 nM): 93.4%
normalised viability (HCC1937; 100 nM): 100%
normalised viability (HCC1599; 100 nM): 100%
normalised viability (MDA-MB-453 [10]; 10 nM): 103%
normalised viability (HDQ-P1; 10 nM): 115%
normalised viability (BT-549; 100 nM): 118%
normalised viability (CAL-51; 10 nM): 97.5%
normalised viability (MDA-MB-231 [11]; 100 nM): 101%
normalised viability (DU-4475; 10 nM): 103%
normalised viability (CAL-120 [12]; 100 nM): 94.8%
normalised viability (BT-474; 100 nM): 116%
normalised viability (MDA-MB-436; 100 nM): 114%
